From publication PMC8698454, “Anti-Colonization Effect of Au Surfaces with Self-Assembled Molecular Monolayers Functionalized with Antimicrobial Peptides on S. epidermidis” (Antibiotics, 2021)
Where two headings read alike, the source gives them in different places. Where a SMILES comes first, the peptide text is derived from it. [ ]: non-standard residue; d: D form. Lys(N3) = [N-]=[N+]=NCCCC[C@H](N)C(=O)O

Columns and labels:
[1] = test system: Escherichia coli ATCC 25922; type: cell-based; conditions: for Antimicrobial Activity (MIC) E. coli: ATCC 25922; for MIC E. coli ATCC 25922: Table S3
Method: (§1) The minimal inhibitory concentration (MIC) of peptides 1a, 1b, 2a, and 2b were determined by broth microdilution according to the Clinical Laboratory Standard Institute (CLSI) method […]-A9. The MICs of the peptides 1c, 1d, 2c, and 2d were determined by broth dilution according to the European Committee for Antimicrobial Susceptibility Testing (EUCAST). Final concentrations of 0.5-256 μg/mL were tested against a panel of reference bacteria-S. aureus (ATCC 9144), S. epidermidis (1457), E. coli (ATCC 25922), and P. aeruginosa (ATCC 27853). Each strain was tested in biological triplicate. The MIC values were defined as the lowest concentration of the peptides resulting in no visual growth.

[2] = test system: Pseudomonas aeruginosa ATCC 27853; type: cell-based; conditions: for Antimicrobial Activity (MIC) P. aeruginosa: ATCC 27853; for MIC P. aeruginosa ATCC 27853: Table S3
Method: as §1

[3] = test system: Staphylococcus epidermidis 1457; type: cell-based; conditions: for MIC S. epidermidis 1457: Table S3
Method: as §1

[4] = test system: Staphylococcus aureus ATCC 9144; type: cell-based; conditions: for Antimicrobial Activity (MIC) S. aureus: ATCC 9144; for MIC S. aureus ATCC 9144: Table S3
Method: as §1

Gram-positive bacteria = type: cell-based, S. aureus and S. epidermidis
Method: as §1

Gram-negative bacteria = type: cell-based, E. coli and P. aeruginosa
Method: as §1

[5] = technical replicate 1, biological replicate BR1
[6] = technical replicate 1, biological replicate BR2
[7] = technical replicate 1, biological replicate BR3
[8] = technical replicate 2, biological replicate BR1
[9] = technical replicate 2, biological replicate BR2
[10] = technical replicate 2, biological replicate BR3
[11] = technical replicate 3, biological replicate BR1
[12] = technical replicate 3, biological replicate BR2
[13] = technical replicate 3, biological replicate BR3
[14] = broth microdilution CLSI M07-A9 (1a,1b,2a,2b) or broth dilution EUCAST (1c,1d,2c,2d), 0.5-256 µg/mL tested, biological triplicate, no visual growth
[15] = strain 1457, broth microdilution CLSI M07-A9 (1a,1b,2a,2b) or broth dilution EUCAST (1c,1d,2c,2d), 0.5-256 µg/mL tested, biological triplicate, no visual growth
[16] = broth microdilution CLSI M07-A9 (1a,1b,2a,2b) or broth dilution EUCAST (1c,1d,2c,2d), 0.5-256 µg/mL tested, biological triplicate, lowest concentration with no visual growth

[N-]=[N+]=NCCCC[C@H](NC(=O)[C@H](Cc1ccccc1)NC(=O)[C@H](CCCNC(=N)N)NC(=O)[C@H](Cc1c[nH]c2ccccc12)NC(=O)[C@H](Cc1c[nH]c2ccccc12)NC(=O)[C@@H](N)CCCNC(=N)N)C(N)=O [1c] (H-RWWRF[Lys(N3)]-NH2)
32 µg/mL: MIC E. coli ATCC 25922 [1, 5] | MIC E. coli ATCC 25922 [1, 7] | MIC E. coli ATCC 25922 [1, 10] | MIC E. coli ATCC 25922 [1, 13] | MIC P. aeruginosa ATCC 27853 [2, 7] | MIC P. aeruginosa ATCC 27853 [2, 10] | MIC P. aeruginosa ATCC 27853 [2, 13] | Antimicrobial Activity (MIC) S. aureus [4] | MIC S. aureus ATCC 9144 [4, 5] | MIC S. aureus ATCC 9144 [4, 6] | MIC S. aureus ATCC 9144 [4, 7] | MIC S. aureus ATCC 9144 [4, 8] | MIC S. aureus ATCC 9144 [4, 9] | MIC S. aureus ATCC 9144 [4, 10] | MIC S. aureus ATCC 9144 [4, 11] | MIC S. aureus ATCC 9144 [4, 12] | MIC S. aureus ATCC 9144 [4, 13]
64 µg/mL: Antimicrobial Activity (MIC) E. coli [1] | MIC E. coli ATCC 25922 [1, 6] | MIC E. coli ATCC 25922 [1, 8] | MIC E. coli ATCC 25922 [1, 9] | MIC E. coli ATCC 25922 [1, 11] | MIC E. coli ATCC 25922 [1, 12] | Antimicrobial Activity (MIC) P. aeruginosa [2] | MIC P. aeruginosa ATCC 27853 [2, 5] | MIC P. aeruginosa ATCC 27853 [2, 6] | MIC P. aeruginosa ATCC 27853 [2, 8] | MIC P. aeruginosa ATCC 27853 [2, 9] | MIC P. aeruginosa ATCC 27853 [2, 11] | MIC P. aeruginosa ATCC 27853 [2, 12] | MIC against Gram-negative bacteria (Gram-negative bacteria)
16 to 32 µg/mL: MIC against Gram-positive bacteria (Gram-positive bacteria)
16 µg/mL: Antimicrobial Activity (MIC) S. epidermidis [3]; 1457 | MIC S. epidermidis 1457 [3, 5] | MIC S. epidermidis 1457 [3, 6] | MIC S. epidermidis 1457 [3, 7] | MIC S. epidermidis 1457 [3, 8] | MIC S. epidermidis 1457 [3, 9] | MIC S. epidermidis 1457 [3, 10] | MIC S. epidermidis 1457 [3, 11] | MIC S. epidermidis 1457 [3, 12] | MIC S. epidermidis 1457 [3, 13]

[N-]=[N+]=NCCCC[C@@H]1NC(=O)[C@H](Cc2ccccc2)NC(=O)[C@H](CCCNC(=N)N)NC(=O)[C@H](Cc2c[nH]c3ccccc23)NC(=O)[C@H](Cc2c[nH]c3ccccc23)NC(=O)[C@H](CCCNC(=N)N)NC1=O [1d] (cyclo(RWWRF[Lys(N3)]))
64 µg/mL: Antimicrobial Activity (MIC) E. coli [1] | MIC E. coli ATCC 25922 [1, 5] | MIC E. coli ATCC 25922 [1, 6] | MIC E. coli ATCC 25922 [1, 7] | MIC E. coli ATCC 25922 [1, 8] | MIC E. coli ATCC 25922 [1, 9] | MIC E. coli ATCC 25922 [1, 10] | MIC E. coli ATCC 25922 [1, 11] | MIC E. coli ATCC 25922 [1, 12] | MIC E. coli ATCC 25922 [1, 13]
128 µg/mL: Antimicrobial Activity (MIC) P. aeruginosa [2] | MIC P. aeruginosa ATCC 27853 [2, 5] | MIC P. aeruginosa ATCC 27853 [2, 7] | MIC P. aeruginosa ATCC 27853 [2, 8] | MIC P. aeruginosa ATCC 27853 [2, 10] | MIC P. aeruginosa ATCC 27853 [2, 11] | MIC P. aeruginosa ATCC 27853 [2, 13]
16 µg/mL: MIC S. epidermidis 1457 [3, 7] | MIC S. epidermidis 1457 [3, 10] | MIC S. epidermidis 1457 [3, 13] | MIC S. aureus ATCC 9144 [4, 6] | MIC S. aureus ATCC 9144 [4, 9] | MIC S. aureus ATCC 9144 [4, 12] | MIC S. aureus ATCC 9144 [4, 13]
256 µg/mL: MIC P. aeruginosa ATCC 27853 [2, 6] | MIC P. aeruginosa ATCC 27853 [2, 9] | MIC P. aeruginosa ATCC 27853 [2, 12]
8 µg/mL: Antimicrobial Activity (MIC) S. epidermidis [3]; 1457 | MIC S. epidermidis 1457 [3, 5] | MIC S. epidermidis 1457 [3, 6] | MIC S. epidermidis 1457 [3, 8] | MIC S. epidermidis 1457 [3, 9] | MIC S. epidermidis 1457 [3, 11] | MIC S. epidermidis 1457 [3, 12] | Antimicrobial Activity (MIC) S. aureus [4] | MIC S. aureus ATCC 9144 [4, 5] | MIC S. aureus ATCC 9144 [4, 7] | MIC S. aureus ATCC 9144 [4, 8] | MIC S. aureus ATCC 9144 [4, 10] | MIC S. aureus ATCC 9144 [4, 11] | MIC against Gram-positive bacteria (Gram-positive bacteria)

N3-PEG200-RBBRF [2a, azidopeptide N3-PEG200-RBBRF, B = biphenylalanine, amidated C-terminus]
8 µg/mL: MIC S. epidermidis 1457 [3, 6] | MIC S. epidermidis 1457 [3, 7] | MIC S. epidermidis 1457 [3, 9] | MIC S. epidermidis 1457 [3, 10] | MIC S. epidermidis 1457 [3, 12] | MIC S. epidermidis 1457 [3, 13] | Antimicrobial Activity (MIC) S. epidermidis [3, 15] | Antimicrobial Activity (MIC) S. aureus [4, 16] | MIC S. aureus ATCC 9144 [4, 5] | MIC S. aureus ATCC 9144 [4, 6] | MIC S. aureus ATCC 9144 [4, 7] | MIC S. aureus ATCC 9144 [4, 8] | MIC S. aureus ATCC 9144 [4, 9] | MIC S. aureus ATCC 9144 [4, 10] | MIC S. aureus ATCC 9144 [4, 11] | MIC S. aureus ATCC 9144 [4, 12] | MIC S. aureus ATCC 9144 [4, 13] | MIC against Gram-positive bacteria (Gram-positive bacteria; text summary over S. aureus ATCC 9144 and S. epidermidis 1457)
64 µg/mL: Antimicrobial Activity (MIC) E. coli [1, 14] | MIC E. coli ATCC 25922 [1, 5] | MIC E. coli ATCC 25922 [1, 6] | MIC E. coli ATCC 25922 [1, 7] | MIC E. coli ATCC 25922 [1, 8] | MIC E. coli ATCC 25922 [1, 9] | MIC E. coli ATCC 25922 [1, 10] | MIC E. coli ATCC 25922 [1, 11] | MIC E. coli ATCC 25922 [1, 12] | MIC E. coli ATCC 25922 [1, 13] | Antimicrobial Activity (MIC) P. aeruginosa [2, 14] | MIC P. aeruginosa ATCC 27853 [2, 5] | MIC P. aeruginosa ATCC 27853 [2, 6] | MIC P. aeruginosa ATCC 27853 [2, 7] | MIC P. aeruginosa ATCC 27853 [2, 8] | MIC P. aeruginosa ATCC 27853 [2, 9] | MIC P. aeruginosa ATCC 27853 [2, 10] | MIC P. aeruginosa ATCC 27853 [2, 11] | MIC P. aeruginosa ATCC 27853 [2, 12] | MIC P. aeruginosa ATCC 27853 [2, 13] | MIC against Gram-negative bacteria (Gram-negative bacteria; text summary over E. coli ATCC 25922 and P. aeruginosa ATCC 27853)
4 µg/mL: MIC S. epidermidis 1457 [3, 5] | MIC S. epidermidis 1457 [3, 8] | MIC S. epidermidis 1457 [3, 11]

N3-PEG400-RWWRF [1b, azidopeptide N3-PEG400-RWWRF, PEG400-linked, amidated C-terminus]
> 256 µg/mL: MIC E. coli ATCC 25922 [1, 5] | MIC E. coli ATCC 25922 [1, 6] | MIC E. coli ATCC 25922 [1, 7] | MIC E. coli ATCC 25922 [1, 8] | MIC E. coli ATCC 25922 [1, 9] | MIC E. coli ATCC 25922 [1, 10] | MIC E. coli ATCC 25922 [1, 11] | MIC E. coli ATCC 25922 [1, 12] | MIC E. coli ATCC 25922 [1, 13] | MIC P. aeruginosa ATCC 27853 [2, 5] | MIC P. aeruginosa ATCC 27853 [2, 6] | MIC P. aeruginosa ATCC 27853 [2, 7] | MIC P. aeruginosa ATCC 27853 [2, 8] | MIC P. aeruginosa ATCC 27853 [2, 9] | MIC P. aeruginosa ATCC 27853 [2, 10] | MIC P. aeruginosa ATCC 27853 [2, 11] | MIC P. aeruginosa ATCC 27853 [2, 12] | MIC P. aeruginosa ATCC 27853 [2, 13]
128 µg/mL: MIC S. epidermidis 1457 [3, 5] | MIC S. epidermidis 1457 [3, 6] | MIC S. epidermidis 1457 [3, 8] | MIC S. epidermidis 1457 [3, 9] | MIC S. epidermidis 1457 [3, 10] | MIC S. epidermidis 1457 [3, 11] | MIC S. epidermidis 1457 [3, 12] | Antimicrobial Activity (MIC) S. epidermidis [3, 15] | Antimicrobial Activity (MIC) S. aureus [4, 16] | MIC S. aureus ATCC 9144 [4, 5] | MIC S. aureus ATCC 9144 [4, 6] | MIC S. aureus ATCC 9144 [4, 7] | MIC S. aureus ATCC 9144 [4, 8] | MIC S. aureus ATCC 9144 [4, 9] | MIC S. aureus ATCC 9144 [4, 10] | MIC S. aureus ATCC 9144 [4, 11] | MIC S. aureus ATCC 9144 [4, 12] | MIC S. aureus ATCC 9144 [4, 13]
64 µg/mL: MIC S. epidermidis 1457 [3, 7] | MIC S. epidermidis 1457 [3, 13]
>256 µg/mL: Antimicrobial Activity (MIC) E. coli [1, 14] | Antimicrobial Activity (MIC) P. aeruginosa [2, 14]
